In patent US12077503B2, “Substituted cyclic amides and their use as herbicides” (FMC CORPORATION, priority 2015, dated 2024):

Tests used:
Assay type in all cases: in vivo
[1] = system: Kochia (Kochia scoparia); assay: Test A postemergence; conditions: Bassia scoparia, post-emergence, 240 h, postemergence, approx. 10 d; for pest or weed control at 125 g/ha: 125 g ai/ha, visual injury on 0 to 100 scale (0 no effect, 100 complete control), read-out: Kochia plant response rating; for pest or weed control at 500 g/ha: 500 g ai/ha, visual injury, 0 to 100 scale (0 no effect, 100 complete control), read-out: Plant response rating, Kochia
How it was run: (§1)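 In a loam soil and sand blend, planted seeds got a preemergence directed soil spray, and young plants at the one- to two-leaf stage, 2–10 cm high, got a postemergence application; ~10 d greenhouse hold; injury rated visually, 0 = none, 100 = complete control.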

[2] = system: barnyardgrass (Echinochloa crus-galli); assay: Test A postemergence; conditions: Echinochloa crus-galli, post-emergence, 240 h, postemergence, approx. 10 d; for pest or weed control at 125 g/ha: 125 g ai/ha, visual injury on 0 to 100 scale (0 no effect, 100 complete control), read-out: Barnyardgrass plant response rating; for pest or weed control at 500 g/ha: 500 g ai/ha, visual injury, 0 to 100 scale (0 no effect, 100 complete control), read-out: Plant response rating, Barnyardgrass
How it was run: as §1

[3] = system: Galium (catchweed bedstraw, Galium aparine); assay: Test A postemergence; conditions: Galium, post-emergence, 240 h, postemergence, approx. 10 d; for pest or weed control at 125 g/ha: 125 g ai/ha, visual injury on 0 to 100 scale (0 no effect, 100 complete control), read-out: Galium plant response rating; for pest or weed control at 500 g/ha: 500 g ai/ha, visual injury, 0 to 100 scale (0 no effect, 100 complete control), read-out: Plant response rating, Galium
How it was run: as §1

[4] = system: giant foxtail (Setaria faberii); assay: Test A postemergence; conditions: Setaria faberi, post-emergence, 240 h, postemergence, approx. 10 d; for pest or weed control at 125 g/ha: 125 g ai/ha, visual injury on 0 to 100 scale (0 no effect, 100 complete control), read-out: Foxtail, Giant plant response rating; for pest or weed control at 500 g/ha: 500 g ai/ha, visual injury, 0 to 100 scale (0 no effect, 100 complete control), read-out: Plant response rating, Foxtail, Giant
How it was run: as §1

[5] = system: ryegrass, Italian (Italian ryegrass, Lolium multiflorum); assay: Test A postemergence; conditions: Lolium multiflorum, post-emergence, 240 h, 125 g ai/ha, postemergence; visual injury on 0 to 100 scale (0 no effect, 100 complete control), approx. 10 d; read-out: Ryegrass, Italian plant response rating
How it was run: as §1

[6] = system: corn (Zea mays); assay: Test A postemergence; conditions: Zea mays, post-emergence, 240 h, postemergence, approx. 10 d; for plant injury at 125 g/ha: 125 g ai/ha, visual injury on 0 to 100 scale (0 no effect, 100 complete control), read-out: Corn plant response rating; for Corn plant response rating (crop injury, 0 = no effect, 100 = complete kill) at 500 g/ha: 500 g ai/ha, visual injury, 0 to 100 scale (0 no effect, 100 complete control)
How it was run: as §1

[7] = system: blackgrass (Alopecurus myosuroides); assay: Test A postemergence; conditions: Alopecurus myosuroides, post-emergence, 240 h, postemergence, approx. 10 d; for pest or weed control at 125 g/ha: 125 g ai/ha, visual injury on 0 to 100 scale (0 no effect, 100 complete control), read-out: Blackgrass plant response rating; for pest or weed control at 500 g/ha: 500 g ai/ha, visual injury, 0 to 100 scale (0 no effect, 100 complete control), read-out: Plant response rating, Blackgrass
How it was run: as §1

[8] = system: ragweed (common ragweed, Ambrosia elatior); assay: Test A postemergence; conditions: Ambrosia artemisiifolia, post-emergence, 240 h, 125 g ai/ha, postemergence; visual injury on 0 to 100 scale (0 no effect, 100 complete control), approx. 10 d; read-out: Ragweed plant response rating
How it was run: as §1

[9] = system: pigweed (Amaranthus retroflexus); assay: Test A postemergence; conditions: Amaranthus retroflexus, post-emergence, 240 h, 125 g ai/ha, postemergence; visual injury on 0 to 100 scale (0 no effect, 100 complete control), approx. 10 d; read-out: Pigweed plant response rating
How it was run: as §1

[10] = system: wheat (Triticum aestivum); assay: Test A postemergence; conditions: Triticum aestivum, post-emergence, 240 h, 125 g ai/ha, postemergence; visual injury on 0 to 100 scale (0 no effect, 100 complete control), approx. 10 d; read-out: Wheat plant response rating
How it was run: as §1

[11] = system: Kochia (Kochia scoparia); assay: Test A preemergence; conditions: Bassia scoparia, pre-emergence, 240 h; for pest or weed control at 125 g/ha: 125 g ai/ha, Preemergence, visual injury rating after approximately 10 d, read-out: Kochia plant response rating (0 to 100 scale, 0 is no effect, 100 is complete control); for pest or weed control at 500 g/ha: 500 g ai/ha, preemergence, visual injury rating about 10 d after treatment, 0 to 100 scale (0 no effect, 100 complete control), read-out: Kochia plant response rating
How it was run: as §1

[12] = system: barnyardgrass (Echinochloa crus-galli); assay: Test A preemergence; conditions: Echinochloa crus-galli, pre-emergence, 240 h; for pest or weed control at 125 g/ha: 125 g ai/ha, Preemergence, visual injury rating after approximately 10 d, read-out: Barnyardgrass plant response rating (0 to 100 scale, 0 is no effect, 100 is complete control); for pest or weed control at 500 g/ha: 500 g ai/ha, preemergence, visual injury rating about 10 d after treatment, 0 to 100 scale (0 no effect, 100 complete control), read-out: Barnyardgrass plant response rating
How it was run: as §1

[13] = system: giant foxtail (Setaria faberii); assay: Test A preemergence; conditions: Setaria faberi, pre-emergence, 240 h; for pest or weed control at 125 g/ha: 125 g ai/ha, Preemergence, visual injury rating after approximately 10 d, read-out: Foxtail, Giant plant response rating (0 to 100 scale, 0 is no effect, 100 is complete control); for pest or weed control at 500 g/ha: 500 g ai/ha, preemergence, visual injury rating about 10 d after treatment, 0 to 100 scale (0 no effect, 100 complete control), read-out: Foxtail, Giant plant response rating
How it was run: as §1

[14] = system: ryegrass, Italian (Italian ryegrass, Lolium multiflorum); assay: Test A preemergence; conditions: Lolium multiflorum, pre-emergence, 240 h; for pest or weed control at 125 g/ha: 125 g ai/ha, Preemergence, visual injury rating after approximately 10 d, read-out: Ryegrass, Italian plant response rating (0 to 100 scale, 0 is no effect, 100 is complete control); for pest or weed control at 500 g/ha: 500 g ai/ha, preemergence, visual injury rating about 10 d after treatment, 0 to 100 scale (0 no effect, 100 complete control), read-out: Ryegrass, Italian plant response rating
How it was run: as §1

[15] = system: ragweed (common ragweed, Ambrosia elatior); assay: Test A preemergence; conditions: Ambrosia artemisiifolia, pre-emergence, 240 h; for pest or weed control at 125 g/ha: 125 g ai/ha, Preemergence, visual injury rating after approximately 10 d, read-out: Ragweed plant response rating (0 to 100 scale, 0 is no effect, 100 is complete control); for pest or weed control at 500 g/ha: 500 g ai/ha, preemergence, visual injury rating about 10 d after treatment, 0 to 100 scale (0 no effect, 100 complete control), read-out: Ragweed plant response rating
How it was run: as §1

[16] = system: pigweed (Amaranthus retroflexus); assay: Test A preemergence; conditions: Amaranthus retroflexus, pre-emergence, 240 h; for pest or weed control at 125 g/ha: 125 g ai/ha, Preemergence, visual injury rating after approximately 10 d, read-out: Pigweed plant response rating (0 to 100 scale, 0 is no effect, 100 is complete control); for pest or weed control at 500 g/ha: 500 g ai/ha, preemergence, visual injury rating about 10 d after treatment, 0 to 100 scale (0 no effect, 100 complete control), read-out: Pigweed plant response rating

Row | Structure (SMILES) | pest or weed control at 125 g/ha [1] [%] | pest or weed control at 500 g/ha [1] [%] | pest or weed control at 125 g/ha [2] [%] | pest or weed control at 500 g/ha [2] [%] | pest or weed control at 125 g/ha [3] [%] | pest or weed control at 500 g/ha [3] [%] | pest or weed control at 125 g/ha [4] [%] | pest or weed control at 500 g/ha [4] [%] | pest or weed control at 125 g/ha [5] [%] | plant injury at 125 g/ha [6] [%] | Corn plant response rating (crop injury, 0 = no effect, 100 = complete kill) at 500 g/ha [6] [%] | pest or weed control at 125 g/ha [7] [%] | pest or weed control at 500 g/ha [7] [%] | pest or weed control at 125 g/ha [8] [%] | pest or weed control at 125 g/ha [9] [%] | plant injury at 125 g/ha [10] [%] | pest or weed control at 125 g/ha [11] [%] | pest or weed control at 500 g/ha [11] [%] | pest or weed control at 125 g/ha [12] [%] | pest or weed control at 500 g/ha [12] [%] | other results
1 | Cc1cc([C@H]2CNC(=O)[C@@H]2C(=O)Nc2ccc(F)cc2F)ccc1C(F)(F)F [Compound 1043] | 0 | 40 | 50 | 80 | 20 | 40 | 70 | 80 | 0 | 20 | 60 | 20 | 30 | 0 | 0 | 0 | 60 | 70 | 80 | 90 | pest or weed control at 125 g/ha [13]: 70%; pest or weed control at 500 g/ha [13]: 90%; pest or weed control at 125 g/ha [14]: 20%; pest or weed control at 500 g/ha [14]: 50%; pest or weed control at 125 g/ha [15]: 0%; pest or weed control at 500 g/ha [15]: 50%; pest or weed control at 125 g/ha [16]: 0%; pest or weed control at 500 g/ha [16]: 20%
2 | CN1CC(c2ccccc2OC(F)(F)C(F)F)C(C(=O)Nc2ccccc2F)C1=O (stereo not drawn) [Compound 1053] | 0 | 0 | 0 | 0 | 0 | 0 | 0 | 0 | 0 | 0 | 0 | 0 | 0 | 0 | 0 | 0 | 0 | 0 | 0 | 60 | pest or weed control at 125 g/ha [13]: 0%; pest or weed control at 500 g/ha [13]: 0%; pest or weed control at 125 g/ha [14]: 0%; pest or weed control at 500 g/ha [14]: 0%; pest or weed control at 125 g/ha [15]: 0%; pest or weed control at 500 g/ha [15]: 0%; pest or weed control at 125 g/ha [16]: 0%; pest or weed control at 500 g/ha [16]: 0%
3 | O=C1NCC(c2ccccc2OC(F)(F)C(F)F)C1C(=O)Nc1cccc(F)c1F (stereo not drawn) [Compound 1054] | 0 | 0 | 0 | 0 | 0 | 0 | 0 | 0 | 0 | 0 | 0 | 0 | 0 | 0 | 0 | 0 | 0 | 0 | 0 | 0 | pest or weed control at 125 g/ha [13]: 0%; pest or weed control at 500 g/ha [13]: 0%; pest or weed control at 125 g/ha [14]: 0%; pest or weed control at 500 g/ha [14]: 0%; pest or weed control at 125 g/ha [15]: 0%; pest or weed control at 500 g/ha [15]: 0%; pest or weed control at 125 g/ha [16]: 0%; pest or weed control at 500 g/ha [16]: 0%
